# Experimental data: patent US20260314598A1, “THE USE OF FLORPYRAUXIFEN-BENZYL AS A SOYBEAN HARVEST AID” (CORTEVA AGRISCIENCE LLC, priority 2022, published 2026)
# Tested on: soybean plants
# Assay: Field trial of soybean pre-harvest desiccation: visual defoliation after a single spray
# Type: in vivo
# Settings: for Percentage of defoliation (raw data): single application at R7.2, 100 L/ha spray; for Percentage of defoliation (Abbot's formula): single application at R7.2, adjusted to untreated
# Method: Field trials were carried out to test the soybean desiccation efficacy of florpyrauxifen-benzyl at 5, 7.5, 10, 15 and 20 g a.i./ha. Soybean plants were sprayed at the R7.2 soybean growth stage.
# […] Herbicides were diluted in water and a single application for each rate (backpack sprayer) was performed employing 100 L/ha of spray solution. The percentage of visual defoliation was assessed at 3, 7 and 10 days after spray application. The significance of treatment effects was evaluated with F-approximate test (α=0.05) and least square means from different treatments were compared with Tukey's test, after adjusting the % defoliation using Abbott's formula (Abbott, W. S., 1925. A method of computing the effectiveness of an insecticide. J. Econ. Entomol. 18:265-267).
# [1] = 3 DAA, 370 g ai/ha, untreated 74.4
# [2] = 10 DAA, 370 g ai/ha, untreated 89.8
structure (smiles),measurement,setting,value
"COc1c(Cl)ccc(-c2nc(C(=O)OCc3ccccc3)c(Cl)c(N)c2F)c1F [Florpyrauxifen-benzyl, florpyrauxifen-benzyl]",Percentage of defoliation (raw data),"3 DAA, 5 g ai/ha, untreated 74.4",78.8%
same,Percentage of defoliation (Abbot's formula),"3 DAA, 5 g ai/ha",7.4%
same,Percentage of defoliation (raw data),"3 DAA, 7.5 g ai/ha, untreated 74.4",80.8%
same,Percentage of defoliation (Abbot's formula),"3 DAA, 7.5 g ai/ha",10.0%
same,Percentage of defoliation (raw data),"3 DAA, 10 g ai/ha, untreated 74.4",81.3%
same,Percentage of defoliation (Abbot's formula),"3 DAA, 10 g ai/ha",10.7%
same,Percentage of defoliation (raw data),"3 DAA, 15 g ai/ha, untreated 74.4",82.4%
same,Percentage of defoliation (Abbot's formula),"3 DAA, 15 g ai/ha",12.3%
same,Percentage of defoliation (raw data),"3 DAA, 20 g ai/ha, untreated 74.4",84.3%
same,Percentage of defoliation (Abbot's formula),"3 DAA, 20 g ai/ha",15.3%
same,Percentage of defoliation (raw data),"7 DAA, 5 g ai/ha",89.3%
same,Percentage of defoliation (Abbot's formula),"7 DAA, 5 g ai/ha",7.8%
same,Percentage of defoliation (raw data),"7 DAA, 7.5 g ai/ha",90.8%
same,Percentage of defoliation (Abbot's formula),"7 DAA, 7.5 g ai/ha",9.6%
same,Percentage of defoliation (raw data),"7 DAA, 10 g ai/ha",91.4%
same,Percentage of defoliation (Abbot's formula),"7 DAA, 10 g ai/ha",10.4%
same,Percentage of defoliation (raw data),"7 DAA, 15 g ai/ha",93.0%
same,Percentage of defoliation (Abbot's formula),"7 DAA, 15 g ai/ha",12.7%
same,Percentage of defoliation (raw data),"7 DAA, 20 g ai/ha",94.5%
same,Percentage of defoliation (Abbot's formula),"7 DAA, 20 g ai/ha",14.7%
same,"percentage of defoliation compared to untreated plants, versus standards","7 DAA, rate not restated (15 and 20 g ai/ha in preceding sentence), Tukey's test",statistically equivalent to both ammonium-glufosinate and diquat
same,Percentage of defoliation (raw data),"10 DAA, 5 g ai/ha, untreated 89.8",97.1%
same,Percentage of defoliation (Abbot's formula),"10 DAA, 5 g ai/ha",9.5%
same,Percentage of defoliation (raw data),"10 DAA, 7.5 g ai/ha, untreated 89.8",97.9%
same,Percentage of defoliation (Abbot's formula),"10 DAA, 7.5 g ai/ha",10.4%
same,Percentage of defoliation (raw data),"10 DAA, 10 g ai/ha, untreated 89.8",97.9%
same,Percentage of defoliation (Abbot's formula),"10 DAA, 10 g ai/ha",10.5%
same,Percentage of defoliation (raw data),"10 DAA, 15 g ai/ha, untreated 89.8",98.6%
same,Percentage of defoliation (Abbot's formula),"10 DAA, 15 g ai/ha",11.3%
same,Percentage of defoliation (raw data),"10 DAA, 20 g ai/ha, untreated 89.8",99.1%
same,Percentage of defoliation (Abbot's formula),"10 DAA, 20 g ai/ha",11.9%
same,"percentage of defoliation compared to untreated plants, versus standard","15 and 20 g ai/ha, 3 DAA, F-approximate test (α=0.05), Tukey's test",statistically equivalent to ammonium-glufosinate
"c1cc[n+]2c(c1)-c1cccc[n+]1CC2 [Diquat, diquat]",Percentage of defoliation (raw data),[1],95.7%
same,Percentage of defoliation (Abbot's formula),"3 DAA, 370 g ai/ha",31.7%
same,Percentage of defoliation (raw data),"7 DAA, 370 g ai/ha",98.9%
same,Percentage of defoliation (Abbot's formula),"7 DAA, 370 g ai/ha",20.5%
same,Percentage of defoliation (raw data),[2],99.8%
same,Percentage of defoliation (Abbot's formula),"10 DAA, 370 g ai/ha",12.9%
"CP(=O)(O)CCC(N)C(=O)O (centres unmarked) [Ammonium glufosinate, ammonium-glufosinate]",Percentage of defoliation (raw data),[1],84.9%
same,Percentage of defoliation (Abbot's formula),"3 DAA, 370 g ai/ha",16.4%
same,Percentage of defoliation (raw data),"7 DAA, 370 g ai/ha",93.9%
same,Percentage of defoliation (Abbot's formula),"7 DAA, 370 g ai/ha",13.9%
same,Percentage of defoliation (raw data),[2],98.1%
same,Percentage of defoliation (Abbot's formula),"10 DAA, 370 g ai/ha",10.8%
